According to patent EP1977646A1, “Insecticidal hydroxyethyl thlourea derivatives” (Bayer CropScience AG, priority 2007, dated 2008):
Like-named read-outs stand apart in the source and are kept apart here.

What was measured:
Myzus persicae [1] = assay: Myzus persicae - test (drench); type: in vivo; settings: soil, application rate of 20 ppm, cabbage plants drenched
Protocol: (§1) To produce a suitable preparation of active compound, 1 part by weight of active compound is mixed with the stated amount of solvent and emulsifier, and the concentrate is diluted with emulsifier-containing water to the desired concentration.
Cabbage plants (Brassica oleracea) which are heavily infested by the green peach aphid (Myzus persicae) are treated by being drenched with the preparation of the active compound of the desired concentration.
After the specified period of time, mortality in % is determined. 100 % means that all the aphids have been killed; 0 % means that none of the aphids have been killed.

Tetranychus urticae = Tetranychus urticae - test; OP-resistant (spray application); type: in vivo; settings: in Phaseolus vulgaris, read-out: activity (mortality in %)
Protocol: Tetranychus urticae - test; OP-resistant (spray application)
as §1
French bean (Phaseolus vulgaris) which are heavily infested with all stages of the two spotted spidermite (Tetranychus urticae), are sprayed with a preparation of the active ingredient at the desired concentration.
After the specified period of time, mortality in % is determined. 100% means that all spider mites have been killed and 0% means that none of the spider mites have been killed.

Myzus persicae [2] = assay: Myzus persicae - test (spray application); type: in vivo; settings: application rate of 500 g/ha, Chinese cabbage leaf-disks sprayed, all instars
Protocol: Myzus persicae - test; (spray application)
as §1
Chinese cabbage (Brassica pekinesis) leaf-disks infected with all instars of the green peach aphid (Myzus persicae), are sprayed with a preparation of the active ingredient at the desired concentration.
After the specified period of time, mortality in % is determined. 100% means that all aphids have been killed; 0% means that none of the aphids have been killed.

[3] = logP (HCOOH) by HPLC, EEC-Directive 79/831, Annex V.A8; type: physicochemical; settings: gradient method; for chromatographic logP: hplc acetonitrile/0.1% hcooh
Protocol: A stirred mixture of 600 mg (3,4 mmol) 4-fluoro-1-aminoindane and 778 mg (4.37 mmol) 1,1-thiocarbonyldiimidazole in dichloromethane was kept at ambient temperature for 1,5 h. After addition of 230 mg (3.74 mmol) 2-aminoethanol dissolved in 3 mL dichloromethane the resulting mixture was stirred for further 72 h at ambient temperature. Then, the mixture was diluted with ethyl acetate and washed with 1 N HCl and saturated NaHCO3 solution. After phase separation, the organic phase was dried with solid Na2SO4, filtered and evaporated under reduced pressure. The residue was purified by chromatography (silica gel, cyclohexane/ethyl acetate = vol. 5:1) to afford 350 mg 1-(4-fluoro-2,3-dihydro-1H-inden-1-yl)-3-(2-hydroxyethyl)thiourea. The NMR spectrum was consistent with the proposed structure. logP^(1)) = 1,74 [formula] ^1) logP (HCOOH) determined according to EEC-Directive 79/831, Annex V.A8 using HPLC (gradient method, acetonitrile/0.1% HCOOH)
logP (HCOOH) determined according to EEC-Directive 79/831, Annex V.A8 using HPLC (gradient method, acetonitrile/0.1% HCOOH)

Myzus persicae [4] = assay: Myzus-Test; oral (spray application); type: in vivo
Protocol: Myzus-Test; oral (spray application)
To produce a suitable preparation of active compound, 1 part by weight of active compound ist mixed with the stated amount of solvent and emulsifier, and the concentrate is diluted with emulsifier-containing water to the desired concentration.
Containers are infested with a mixed population of the green peach aphid (Myzus persicae), the aphids suck on a preparation of the active compound at the desired concentration.
After the specified period of time, mortality in % is determined. 100 % means that all aphids have been killed; 0 % means that none of the aphids have been killed.

Aphis gossypii = Aphis gossypii - test (leaf dip); type: in vivo; settings: foliar, application rate of 20 ppm, cotton leaves dipped
Protocol: Aphis gossypii - test [table] To produce a suitable preparation of active compound, 1 part by weight of active compound is mixed with the stated amount of solvent and emulsifier, and the concentrate is diluted with emulsifier-containing water to the desired concentration. Cotton leaves (Gossypium hirsutum) which are heavily infested by the cotton aphid (Aphis gossypii) are treated by being dipped into the preparation of the active compound of the desired concentration. After the specified period of time, the mortality in % is determined. 100 % means that all the aphids have been killed; 0 % means that none of the aphids have been killed.

[5] = application rate of 100 ppm, aphids suck on preparation, mixed population

| chromatographic logP [3] | SMILES | mortality at 500 g/ha (Myzus persicae [2]) [%] | mortality at 20 ppm (Aphis gossypii) [%] | other results |
| --- | --- | --- | --- | --- |
| 1.65 | OCCNC(=S)N[C@@H]1CCc2ccccc21 [1-3] |  |  |  |
| 2.07 | COCCNC(=S)NC1CCc2ccccc21 (stereo not shown) [1-4, 1-(2,3-dihydro-1H-inden-1-yl)-3-(2-methoxyethyl)thiourea] | ≥ 80 |  | mortality at 100 ppm (Myzus persicae [4]; [5]): ≥ 80% |
| 1.74 | OCCNC(=S)NC1CCc2c(F)cccc21 (stereo not shown) [1-14, 1-(4-fluoro-2,3-dihydro-1H-inden-1-yl)-3-(2-hydroxyethyl)thiourea] | ≥ 80 | ≥ 80 |  |
| 2.21 | COCCNC(=S)NC1CCc2c(F)cccc21 (stereo not shown) [1-17] | ≥ 80 |  | mortality at 100 ppm (Myzus persicae [4]): ≥ 80% |
| 1.78 | CC(CO)NC(=S)N[C@H]1CCc2ccccc21 (stereo partly shown) [1-21] |  |  |  |
| 1.68 | OCCNC(=S)NC1CCc2c(F)ccc(F)c21 (stereo not shown) [1-83] |  |  |  |
| 1.64 | OCCN(CCO)C(=S)N[C@H]1CCc2ccccc21 [1-105] |  |  |  |
| 1.42 | OCCNC(=S)NC1CCOc2ccccc21 (stereo not shown) [3-1] | ≥ 80 |  |  |
| 1.79 | OCCNC(=S)N[C@H]1CCCc2ccccc21 [4-2] | ≥ 80 | ≥ 80 |  |

| SMILES | chromatographic logP [3] | mortality at 500 g/ha (Myzus persicae [2]) [%] | mortality at 20 ppm (Aphis gossypii) [%] | other results |
| --- | --- | --- | --- | --- |
| OCCNC(=S)N[C@H]1CCc2ccccc21 [1-2, 1-[(1S)-2,3-dihydro-1H-inden-1-yl]-3-(2-hydroxyethyl)thiourea] | 1.65 | ≥ 80 | ≥ 80 | mortality at 20 ppm (Myzus persicae [1]): ≥ 80%; mortality at 100 g/ha (Tetranychus urticae): ≥ 80%; logP (HCOOH) ([3]; acetonitrile/0.1% HCOOH): 1,56; mortality at 100 ppm (Myzus persicae [4]; [5]): ≥ 80% |
